In US20230165276A1, “NOVEL USE OF SUBSTITUTED 2H-CHROMENS AND THEIR DERIVATIVES” (DSM IP ASSETS B.V., priority 2018, published 2023):

Legend:
[1] = Oxipres antioxidant efficacy value (EV) in poultry meal; conditions: 70° C., 5 bar oxygen, 130 hours, equimolar to BHT, EV relative to BHT (EV=1)
Protocol: (§1) Oxidative stability was assessed using an Oxipres (Mikrolab Aarhus A/S, Hojbjerg, Denmark). The ML OXIPRES® is designed to monitor the oxidation of heterogeneous products. Consumption of oxygen results in a pressure drop which is measured by means of pressure transducers. The samples are heated to accelerate the process and shorten the analysis time (Mikrolab Aarhus 2012).
(§2) Sample weights were 50 g. They were loaded into the Oxipres vessels and placed inside the stainless-steel pressure vessel and sealed. The pressure vessels were purged with pure oxygen and filled to an initial oxygen pressure of 5 bar and maintained at 70° C. during measurement (D. Ying, L. Edin, L. Cheng, L. Sanguansri, M. A. Augustin, LWT-Food Science and Technology 2015, 62, 1105-1111: “Enhanced oxidative stability of extruded product containing polyunsaturated oils.”).
(§3) The oxygen pressure was recorded as function of time. After sample load and temperature rise the pressure in the device is increasing within 10 hours. Thereafter it is decreasing. Consequently, the starting pressure is considered to be the pressure after 10 hours. The analysis ends after 130 hours at 70° C. The oxygen consumption ‘02’ of the tested sample is calculated as follows: […]
(§4) A factor of protection called ‘EV’ (Efficacy Value) was developed to quantify with a relative number (relative to BHT) the antioxidant effect of the tested candidates. EV was calculated as follows:
(§5) EV, being relative to BHT (3,5-di-tert-butyl-4-hydroxy-toluene) (EV=1), makes it possible to compare the antioxidant compounds in a defined feed application.
(§6) Compounds of formulae (1) to (7) were mixed each into the matrix 1, 2 or 3 (pet food, poultry meal, fish meal) in an equimolar ratio compared to BHT. Batches of 200 g feed were produced in order to handle a minimum of 30 mg of antioxidant. First, a 1% pre-dilution of the antioxidant with the feed material was made. Then this pre-dilution was added to the final batch, mixed, sieved (1.25 mm sieve) and mixed using a turbula® mixer. Thereafter 55 g of the final batch were packed into polyethylene bags and stored at 4° C. till time of Oxipres assay. Spare sample were stored at 4° C. An efficacy value 0.7 has been considered as acceptable, an efficacy value the efficacy value of alpha-tocopherol as good, and an efficacy value the efficacy value of BHT as very good.

[2] = Oxipres antioxidant efficacy value (EV) in fish meal; conditions: 70° C., 5 bar oxygen, 130 hours, equimolar to BHT, EV relative to BHT (EV=1)
Protocol: as §1, §2, §3, §4, §5, §6

[3] = Solubility in fish oil; format: physicochemical
Protocol: (§7) Two different levels of compound of formula (1) (0.5 and 2 mg/g) were used in 5 g of natural fish oil (Product Code: FG30TG) and used in the Oxidative Stability Instrument at 80° C. with the air flow rate of 40 psi. The solubility of different amounts and types of antioxidants used in 051 was checked before and after the application. […] Compound of formula (1) was used in the Oxidative Stability instruments under the same conditions used for fish oil evaluations. Also, the synergistic effect of compound of formula (1) with ascorbyl palmitate (AP) was determined using the OSI values. The polymers generated at the end of the experiment were determined by LC.

[4] = Storage stability study of fish oil (PV, p-AV, CD); conditions: 2 mg/g in FG30TG
Protocol: Tables 12, 13 and 14 show the PV (peroxide value), p-AV (p-anisidine value) and CD (conjugated dienoic acid in %) of the fish oil samples stabilized with compound of formula (1). For the storage stability study compound of formula (1) was used in fish oil at only 2 mg/g level. […] MNT had the lowest PV values. There was no considerable variation in p-AV and CD (Tables 13-14) during the storage.

[5] = Polymers generated at the end of the fish oil stabilization experiment (LC); conditions: 2 mg/g in FG30TG oil, without AP
Protocol: as §7
Polymers generated at the end of the stabilization experiment of fish oil with compound of formula (1) and AP are shown in Table 11.
Polymers are combination of complex compounds generated at the end of the oxidation cascade of unsaturated fatty acids and, they indicate the levels of overall oxidation of the matrix. The generation of such polymers in fish oil containing compound of formula (1) could be reduced considerably when AP was added as a synergistic compound (Table 11).

[6] = Oxipres antioxidant efficacy value (EV) in pet food; conditions: 70° C., 5 bar oxygen, 130 hours, equimolar to BHT, EV relative to BHT (EV=1)
Protocol: as §1, §2
as §3, with “The analysis ends after 130 hours at 70° C.” left out
A factor of protection called ‘EV’ (Efficacy Value) was developed to quantify with a relative number (relative to BHT) the antioxidant effect of the tested candidates. EV was calculated as follows: […]

[7] = Oil Stability Index in crude algal oil
Protocol: as §7
This algal oil already contained about 1.6 mg/g of MNT.

[8] = Oil Stability Index (Oxidative Stability Instrument) in FG30TG fish oil
Protocol: Compound of formula (1) was evaluated primarily for its oxidative stability by the Oil Stability Index measurements.
as §7

## Cc1cc(C(C)(C)C)c(O)c(C(C)(C)C)c1 [BHT, 3,5-di-tert-butyl-4-hydroxy-toluene, reference compound]
[1]
  EV in poultry meal: 1
[2]
  EV in Fish meal: 1

## CC1=CC(C)(C)Oc2ccc(O)cc21 [Compound of formula (1), 2,2,4-trimethyl-2H-chromen-6-ol]
[3]; Amount 0.5 mg/g
  Solubility in fish oil, 80° C.: Soluble
  Solubility in fish oil, Room temp.: Soluble
[3]; Amount 2.0 mg/g
  Solubility in fish oil, 80° C.: Soluble
  Solubility in fish oil, Room temp.: Soluble
[4]; 4 days
  CD (conjugated dienoic acid in %): 0.8%
  PV (peroxide value): 2
  p-AV (p-anisidine value): 4.4
[4]; 6 days
  CD (conjugated dienoic acid in %): 0.8%
  PV (peroxide value): 2.6
  p-AV (p-anisidine value): 7.2
[4]; 8 days
  CD (conjugated dienoic acid in %): 0.9%
  PV (peroxide value): 3.8
  p-AV (p-anisidine value): 6.8
[4]; 11 days
  CD (conjugated dienoic acid in %): 0.9%
  PV (peroxide value): 6.8
  p-AV (p-anisidine value): 7.6
[4]; 13 days
  CD (conjugated dienoic acid in %): 0.8%
  PV (peroxide value): 9.8
  p-AV (p-anisidine value): 8.1
[4]; 15 days
  CD (conjugated dienoic acid in %): 0.8%
[4]; 17 days
  PV (peroxide value): 12.1
  p-AV (p-anisidine value): 8.5
[4]; Initial
  CD (conjugated dienoic acid in %): 0.7%
  PV (peroxide value): 0.9
  p-AV (p-anisidine value): 9.9
[1]
  EV in poultry meal: 1.10
[5]
  Polymers (%): 34.67%
[2]
  EV in Fish meal: 0.94
[6]
  EV in pet food: 0.97
[7]; 0.5 mg/g added to crude algal oil already containing about 1.6 mg/g of MNT
  OSI: 16.60 h
[7]; 2 mg/g added to crude algal oil already containing about 1.6 mg/g of MNT
  OSI: 18.55 h
[8]; Table 7, 0.5 mg/g in FG30TG fish oil, 80° C., air flow 40 psi
  OSI: 5.95 h
[8]; Table 7, 2 mg/g in FG30TG fish oil, 80° C., air flow 40 psi
  OSI: 6.73 h
[8]; Table 8, 0.5 mg/g in FG30TG fish oil
  Protection Factor (%): 25.26%
[8]; Table 8, 2 mg/g in FG30TG fish oil
  Protection Factor (%): 41.58%
[8]; Table 9, 2 mg/g in FG30TG fish oil, without AP
  OSI: 5.70 h
[8]; Table 10, 2 mg/g in FG30TG fish oil, without AP
  Protection Factor (%): 23.1%

## CC1(C)C=Cc2cc(O)ccc2O1 [Compound of formula (2), 2,2-dimethyl-2H-chromen-6-ol]
[1]
  EV in poultry meal: 1.11

## CC1=CC(C)(C)Oc2c(C)c(C)c(O)c(C)c21 [Compound of formula (3), 2,2,4,5,7,8-hexamethyl-2H-chromen-6-ol]
[2]
  EV in Fish meal: 0.89

## Cc1c(C)c2c(c(C)c1O)C=CC(C)(C)O2 [Compound of formula (4), 2,2,5,7,8-pentamethyl-2H-chromen-6-ol]
[2]
  EV in Fish meal: 1.10

## CCOc1ccc2c(c1)C(C)=CC(C)(C)O2 [Compound of formula (5), 6-ethoxy-2,2,4-trimethyl-2H-chromene]
[2]
  EV in Fish meal: 0.77

## O=c1ccc2cc(O)ccc2o1 [Compound of formula (6), 6-hydroxycoumarin]
[2]
  EV in Fish meal: 0.75

## Oc1ccc2c(c1)C=CCO2 [Compound of formula (7), 2H-chromen-6-ol]
[2]
  EV in Fish meal: 0.72

## Cc1c(C)c2c(c(C)c1O)CC[C@@](C)(CCC[C@H](C)CCC[C@H](C)CCCC(C)C)O2 [alpha-tocopherol, reference compound]
[1]
  EV in poultry meal: 0.74
[2]
  EV in Fish meal: 0.88
[6]
  EV in pet food: 0.77
